Measured values from the kinase profiling compilation of Christmann-Franck et al. (2016).
Values joined by “and” are separate entries in the source; they are usually repeats but may differ in a detail not shown here. Equal entries are not always repeated.

Experiments:
Assay in all cases: Caliper, Mobility shift assay off-chip
CSNK1A1 (human) = CSNK1A1 (human) (UniProt P48729)
PRKX (human) = PRKX (human) (UniProt P51817)
MKNK2 (human) = MKNK2 (human) (UniProt Q9HBH9)
MELK (human) = MELK (human) (UniProt Q14680)
PTK2 (human) = PTK2 (human) (UniProt Q05397)
ERBB4 (human) = ERBB4 (human) (UniProt Q15303)
MAPK10 (human) = MAPK10 (human) (UniProt P53779)
PRKD3 (human) = PRKD3 (human) (UniProt O94806)
PDK4 (human) = PDK4 (human) (UniProt Q16654)
PRKG2 (human) = PRKG2 (human) (UniProt Q13237)
MAP4K4 (human) = MAP4K4 (human) (UniProt O95819)
CHEK1 (human) = CHEK1 (human) (UniProt O14757)
DAPK1 (human) = DAPK1 (human) (UniProt P53355)
MAPK13 (human) = MAPK13 (human) (UniProt O15264)
STK10 (human) = STK10 (human) (UniProt O94804)
NEK4 (human) = NEK4 (human) (UniProt P51957)
MST1R (human) = MST1R (human) (UniProt Q04912)
PAK7 (human) = PAK7 (human) (UniProt Q9P286)
CDK5 (human) = CDK5 (human) (UniProt Q00535)
CAMK2B (human) = CAMK2B (human) (UniProt Q13554)
MARK3 (human) = MARK3 (human) (UniProt P27448)
TAOK2 (human) = TAOK2 (human) (UniProt Q9UL54)
PRKCQ (human) = PRKCQ (human) (UniProt Q04759)
BTK (human) = BTK (human) (UniProt Q06187)
RPS6KA5 KD1 KD2 (human) = RPS6KA5 KD1 KD2 (human) (UniProt O75582)
PHKG2 (human) = PHKG2 (human) (UniProt P15735)
RET (human) = RET (human) (UniProt P07949)
SIK2 (human) = SIK2 (human) (UniProt Q9H0K1)
CDK6 (human) = CDK6 (human) (UniProt Q00534)
ABL2 (human) = ABL2 (human) (UniProt P42684)
LYN (human) = LYN (human) (UniProt P07948)
DYRK1A (human) = DYRK1A (human) (UniProt Q13627)
PDK2 (human) = PDK2 (human) (UniProt Q15119)
DDR2 (human) = DDR2 (human) (UniProt Q16832)

Chain of PAK7 (human) (Q9P286 whole entry, looked up): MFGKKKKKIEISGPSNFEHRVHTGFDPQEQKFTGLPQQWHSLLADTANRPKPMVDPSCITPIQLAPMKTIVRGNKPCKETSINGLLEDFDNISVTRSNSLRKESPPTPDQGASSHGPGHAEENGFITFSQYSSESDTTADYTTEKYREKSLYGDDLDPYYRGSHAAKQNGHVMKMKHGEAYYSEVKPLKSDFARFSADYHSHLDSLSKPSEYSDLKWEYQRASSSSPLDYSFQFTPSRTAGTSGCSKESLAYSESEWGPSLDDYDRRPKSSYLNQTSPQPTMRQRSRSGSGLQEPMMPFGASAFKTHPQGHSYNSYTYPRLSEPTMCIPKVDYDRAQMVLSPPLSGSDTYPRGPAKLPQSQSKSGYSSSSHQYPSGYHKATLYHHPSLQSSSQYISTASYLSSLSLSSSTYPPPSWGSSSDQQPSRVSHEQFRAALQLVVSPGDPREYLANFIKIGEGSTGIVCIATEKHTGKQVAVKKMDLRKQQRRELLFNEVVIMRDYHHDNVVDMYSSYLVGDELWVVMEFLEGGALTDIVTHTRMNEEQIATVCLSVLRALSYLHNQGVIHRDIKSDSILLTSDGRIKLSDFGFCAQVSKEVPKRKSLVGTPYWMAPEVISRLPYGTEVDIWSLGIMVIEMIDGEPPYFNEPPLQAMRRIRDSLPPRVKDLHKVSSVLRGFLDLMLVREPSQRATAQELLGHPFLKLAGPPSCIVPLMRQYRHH
Chain of BTK (human) (Q06187 whole entry, looked up): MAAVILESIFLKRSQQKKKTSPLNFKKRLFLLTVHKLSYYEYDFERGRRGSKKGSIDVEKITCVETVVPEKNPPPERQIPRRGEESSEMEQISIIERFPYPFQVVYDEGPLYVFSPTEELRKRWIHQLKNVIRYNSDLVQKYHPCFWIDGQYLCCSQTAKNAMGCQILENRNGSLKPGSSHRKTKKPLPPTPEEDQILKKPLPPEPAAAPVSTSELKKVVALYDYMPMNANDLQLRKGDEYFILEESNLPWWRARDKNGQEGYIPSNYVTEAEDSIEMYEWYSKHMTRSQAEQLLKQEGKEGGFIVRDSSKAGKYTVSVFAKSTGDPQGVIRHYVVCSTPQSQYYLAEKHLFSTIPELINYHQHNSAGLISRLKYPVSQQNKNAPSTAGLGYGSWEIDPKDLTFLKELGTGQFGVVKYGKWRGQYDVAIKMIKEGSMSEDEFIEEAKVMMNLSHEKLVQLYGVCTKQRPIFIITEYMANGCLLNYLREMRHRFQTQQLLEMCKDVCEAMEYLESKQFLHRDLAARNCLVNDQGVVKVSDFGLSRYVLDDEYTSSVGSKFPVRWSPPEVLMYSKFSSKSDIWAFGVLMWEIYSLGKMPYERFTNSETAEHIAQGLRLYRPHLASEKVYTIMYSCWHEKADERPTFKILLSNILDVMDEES
Chain of PRKCQ (human) (Q04759 whole entry, looked up): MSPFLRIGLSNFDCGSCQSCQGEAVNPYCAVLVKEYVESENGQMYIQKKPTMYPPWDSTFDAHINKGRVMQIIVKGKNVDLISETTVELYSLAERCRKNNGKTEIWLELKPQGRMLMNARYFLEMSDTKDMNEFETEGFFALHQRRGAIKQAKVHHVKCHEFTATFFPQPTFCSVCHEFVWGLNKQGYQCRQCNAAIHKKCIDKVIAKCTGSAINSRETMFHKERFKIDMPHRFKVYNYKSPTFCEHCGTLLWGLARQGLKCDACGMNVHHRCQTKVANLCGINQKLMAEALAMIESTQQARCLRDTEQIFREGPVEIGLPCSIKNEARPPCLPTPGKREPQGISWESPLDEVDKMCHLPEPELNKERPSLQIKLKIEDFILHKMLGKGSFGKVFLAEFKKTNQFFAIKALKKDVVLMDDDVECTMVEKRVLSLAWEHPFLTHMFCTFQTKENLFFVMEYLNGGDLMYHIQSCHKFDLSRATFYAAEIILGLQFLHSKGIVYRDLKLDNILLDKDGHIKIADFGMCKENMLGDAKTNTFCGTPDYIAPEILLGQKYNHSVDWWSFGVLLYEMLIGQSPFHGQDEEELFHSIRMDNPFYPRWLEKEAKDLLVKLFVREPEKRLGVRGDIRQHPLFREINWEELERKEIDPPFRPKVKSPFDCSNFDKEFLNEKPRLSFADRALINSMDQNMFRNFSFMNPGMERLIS
Chain of MAPK10 (human) (P53779 whole entry, looked up): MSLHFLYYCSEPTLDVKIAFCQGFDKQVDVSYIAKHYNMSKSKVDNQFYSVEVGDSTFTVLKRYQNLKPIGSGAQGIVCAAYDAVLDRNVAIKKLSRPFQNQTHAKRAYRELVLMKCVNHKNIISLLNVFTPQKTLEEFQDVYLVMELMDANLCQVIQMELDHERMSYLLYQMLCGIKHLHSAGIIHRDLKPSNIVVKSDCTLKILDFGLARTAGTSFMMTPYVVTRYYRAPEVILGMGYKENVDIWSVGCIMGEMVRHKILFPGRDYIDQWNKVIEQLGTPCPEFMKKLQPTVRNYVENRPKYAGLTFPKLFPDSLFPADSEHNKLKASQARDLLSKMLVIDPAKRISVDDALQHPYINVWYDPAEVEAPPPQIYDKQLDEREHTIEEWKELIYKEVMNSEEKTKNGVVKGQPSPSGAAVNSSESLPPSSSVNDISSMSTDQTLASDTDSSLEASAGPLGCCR
Chain of PRKD3 (human) (O94806 whole entry, looked up): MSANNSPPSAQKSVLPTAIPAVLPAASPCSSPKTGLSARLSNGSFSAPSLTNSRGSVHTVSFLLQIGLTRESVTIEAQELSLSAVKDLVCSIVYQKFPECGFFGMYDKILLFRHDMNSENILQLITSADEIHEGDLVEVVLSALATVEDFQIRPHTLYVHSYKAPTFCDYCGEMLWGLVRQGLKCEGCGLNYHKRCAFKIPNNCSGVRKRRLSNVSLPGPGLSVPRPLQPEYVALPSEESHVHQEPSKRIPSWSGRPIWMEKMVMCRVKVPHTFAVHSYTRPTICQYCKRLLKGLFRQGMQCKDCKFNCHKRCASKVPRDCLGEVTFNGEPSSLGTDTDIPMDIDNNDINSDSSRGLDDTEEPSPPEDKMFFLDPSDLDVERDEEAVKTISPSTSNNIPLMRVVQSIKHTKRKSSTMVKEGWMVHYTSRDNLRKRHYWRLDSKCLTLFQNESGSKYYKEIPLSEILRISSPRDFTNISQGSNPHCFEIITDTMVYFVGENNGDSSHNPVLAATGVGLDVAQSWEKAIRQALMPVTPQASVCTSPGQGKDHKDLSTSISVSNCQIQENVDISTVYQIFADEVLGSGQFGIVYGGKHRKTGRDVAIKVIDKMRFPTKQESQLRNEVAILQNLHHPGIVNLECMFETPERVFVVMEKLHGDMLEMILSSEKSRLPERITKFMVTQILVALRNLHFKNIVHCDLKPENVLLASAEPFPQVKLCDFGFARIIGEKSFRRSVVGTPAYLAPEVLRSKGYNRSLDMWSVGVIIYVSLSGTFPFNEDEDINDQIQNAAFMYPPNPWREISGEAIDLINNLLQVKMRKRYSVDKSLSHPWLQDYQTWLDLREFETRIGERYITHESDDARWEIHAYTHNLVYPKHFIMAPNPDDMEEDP
Chain of PRKG2 (human) (Q13237 whole entry, looked up): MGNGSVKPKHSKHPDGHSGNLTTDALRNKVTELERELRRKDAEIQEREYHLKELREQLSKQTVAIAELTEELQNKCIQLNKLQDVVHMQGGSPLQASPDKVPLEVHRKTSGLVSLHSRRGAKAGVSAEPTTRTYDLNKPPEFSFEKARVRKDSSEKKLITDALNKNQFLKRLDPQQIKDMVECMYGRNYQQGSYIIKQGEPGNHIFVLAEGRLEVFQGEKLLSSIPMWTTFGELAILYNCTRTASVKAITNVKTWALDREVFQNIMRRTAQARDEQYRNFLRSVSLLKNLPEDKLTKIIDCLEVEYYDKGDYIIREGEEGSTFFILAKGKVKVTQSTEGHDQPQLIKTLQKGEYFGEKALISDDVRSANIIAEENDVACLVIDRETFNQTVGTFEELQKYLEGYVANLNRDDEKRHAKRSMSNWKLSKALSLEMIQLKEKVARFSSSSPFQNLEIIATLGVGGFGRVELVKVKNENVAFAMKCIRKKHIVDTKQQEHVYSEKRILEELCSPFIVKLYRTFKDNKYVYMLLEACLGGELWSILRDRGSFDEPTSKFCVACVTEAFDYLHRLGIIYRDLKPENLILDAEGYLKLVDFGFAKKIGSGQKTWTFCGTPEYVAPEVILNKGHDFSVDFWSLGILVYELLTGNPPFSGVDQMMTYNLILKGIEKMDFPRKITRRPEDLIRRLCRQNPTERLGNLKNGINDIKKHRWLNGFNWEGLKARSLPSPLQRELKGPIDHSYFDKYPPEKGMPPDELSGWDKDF
Chain of PHKG2 (human) (P15735 whole entry, looked up): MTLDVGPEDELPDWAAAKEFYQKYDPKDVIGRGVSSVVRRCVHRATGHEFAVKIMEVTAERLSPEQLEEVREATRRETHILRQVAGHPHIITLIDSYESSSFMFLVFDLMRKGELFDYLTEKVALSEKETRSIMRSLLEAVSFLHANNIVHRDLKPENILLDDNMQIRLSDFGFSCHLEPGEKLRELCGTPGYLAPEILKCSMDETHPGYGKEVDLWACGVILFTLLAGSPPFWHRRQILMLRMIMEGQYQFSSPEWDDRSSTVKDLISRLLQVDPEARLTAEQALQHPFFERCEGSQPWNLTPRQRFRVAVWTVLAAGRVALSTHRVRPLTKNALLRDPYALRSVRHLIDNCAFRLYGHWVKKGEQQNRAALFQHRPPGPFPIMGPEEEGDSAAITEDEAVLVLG
Chain of PRKX (human) (P51817 whole entry, looked up): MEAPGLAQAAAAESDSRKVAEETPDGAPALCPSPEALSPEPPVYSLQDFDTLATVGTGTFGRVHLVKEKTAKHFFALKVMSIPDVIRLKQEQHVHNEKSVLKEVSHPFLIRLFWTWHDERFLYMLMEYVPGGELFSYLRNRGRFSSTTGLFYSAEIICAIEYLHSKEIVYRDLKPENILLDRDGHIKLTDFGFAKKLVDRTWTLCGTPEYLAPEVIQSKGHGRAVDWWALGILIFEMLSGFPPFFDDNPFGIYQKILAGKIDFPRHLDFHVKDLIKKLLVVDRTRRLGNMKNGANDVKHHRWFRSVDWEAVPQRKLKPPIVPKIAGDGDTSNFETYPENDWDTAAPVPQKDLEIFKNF

For `CNC(=O)c1cc(Oc2ccc(NC(=O)Nc3ccc(Cl)c(C(F)(F)F)c3)cc2)ccn1`, the inhibition (CSNK1A1 (human); compound 0.02 µM) was -4.6%, the inhibition (CSNK1A1 (human); compound 0.2 µM) was -2.9% and the inhibition (PRKX (human); compound 0.02 µM) was -7%. The inhibition (PRKX (human); compound 0.2 µM) was 0.2%, the inhibition (MKNK2 (human); compound 0.02 µM) was 4.4% and the inhibition (MKNK2 (human); compound 0.2 µM) was 48.3%. The inhibition (MELK (human); compound 0.02 µM) was -4.3%, the inhibition (MELK (human); compound 0.2 µM) was -1.1% and the inhibition (PTK2 (human); compound 0.02 µM) was -4.6%. The inhibition (PTK2 (human); compound 0.2 µM) was -3.4%, the inhibition (ERBB4 (human); compound 0.02 µM) was -0.4% and the inhibition (ERBB4 (human); compound 0.2 µM) was 10.4%. It also gave an inhibition (MAPK10 (human); compound 0.02 µM) of -6.5%, an inhibition (MAPK10 (human); compound 0.2 µM) of -4.6% and an inhibition (PRKD3 (human); compound 0.02 µM) of -0.7%. The inhibition (PRKD3 (human); compound 0.2 µM) was -5.1%, the inhibition (PDK4 (human); compound 0.02 µM) was 1.9% and the inhibition (PDK4 (human); compound 0.2 µM) was 3.4%. For the same compound, the inhibition (PRKG2 (human); compound 0.02 µM) was -4.4%, the inhibition (PRKG2 (human); compound 0.2 µM) was -0.6% and the inhibition (MAP4K4 (human); compound 0.02 µM) was -4.1%. For the same compound, the inhibition (MAP4K4 (human); compound 0.2 µM) was 6%, the inhibition (CHEK1 (human); compound 0.02 µM) was -2.7% and the inhibition (CHEK1 (human); compound 0.2 µM) was 5.3%. The inhibition (DAPK1 (human); compound 0.02 µM) was 0.7%, the inhibition (DAPK1 (human); compound 0.2 µM) was 1.1% and the inhibition (MAPK13 (human); compound 0.02 µM) was -3.5%. It also gave an inhibition (MAPK13 (human); compound 0.2 µM) of -0.7%, an inhibition (STK10 (human); compound 0.02 µM) of 3.3% and an inhibition (STK10 (human); compound 0.2 µM) of 36.1%. The inhibition (NEK4 (human); compound 0.02 µM) was -3%, the inhibition (NEK4 (human); compound 0.2 µM) was -0.8% and the inhibition (MST1R (human); compound 0.02 µM) was -4.7%. It also gave an inhibition (MST1R (human); compound 0.2 µM) of 5.3%, an inhibition (PAK7 (human); compound 0.02 µM) of -2.5% and an inhibition (PAK7 (human); compound 0.2 µM) of -1.8%. The inhibition (CDK5 (human); compound 0.02 µM) was -3.5%, the inhibition (CDK5 (human); compound 0.2 µM) was -3.6% and the inhibition (CAMK2B (human); compound 0.02 µM) was -6.4%. The inhibition (CAMK2B (human); compound 0.2 µM) was -7%, the inhibition (MARK3 (human); compound 0.02 µM) was -5.5% and the inhibition (MARK3 (human); compound 0.2 µM) was 5.7%. It also gave an inhibition (TAOK2 (human); compound 0.02 µM) of 7.3%, an inhibition (TAOK2 (human); compound 0.2 µM) of 48% and an inhibition (PRKCQ (human); compound 0.02 µM) of 1.3%. For the same compound, the inhibition (PRKCQ (human); compound 0.2 µM) was 14.1%, the inhibition (BTK (human); compound 0.02 µM) was -0.7% and the inhibition (BTK (human); compound 0.2 µM) was 14.6%. It also gave an inhibition (RPS6KA5 KD1 KD2 (human); compound 0.02 µM) of -2.5%, an inhibition (RPS6KA5 KD1 KD2 (human); compound 0.2 µM) of 0.1% and an inhibition (PHKG2 (human); compound 0.02 µM) of -3.1%. For the same compound, the inhibition (PHKG2 (human); compound 0.2 µM) was -2.3%, the inhibition (RET (human); compound 0.02 µM) was 79.4% and the inhibition (RET (human); compound 0.2 µM) was 101%. It also gave an inhibition (SIK2 (human); compound 0.02 µM) of -3.8%, an inhibition (SIK2 (human); compound 0.2 µM) of 3% and an inhibition (CDK6 (human); compound 0.02 µM) of 0.1%. The inhibition (CDK6 (human); compound 0.2 µM) was 2%, the inhibition (ABL2 (human); compound 0.02 µM) was -2.8% and the inhibition (ABL2 (human); compound 0.2 µM) was 3.1%. For the same compound, the inhibition (LYN (human); compound 0.02 µM) was -5% and -0.3%, the inhibition (LYN (human); compound 0.2 µM) was 35.2% and 36.9% and the inhibition (DYRK1A (human); compound 0.02 µM) was -7.5%. For the same compound, the inhibition (DYRK1A (human); compound 0.2 µM) was 3.6%, the inhibition (PDK2 (human); compound 0.02 µM) was -0.1% and the inhibition (PDK2 (human); compound 0.2 µM) was 1.3%.
Work on `CCN(CC)CCNC(=O)c1c(C)[nH]c(/C=C2\C(=O)Nc3ccc(F)cc32)c1C` yielded an inhibition (PRKX (human); compound 0.2 µM) of 7.7%, an inhibition (PRKX (human); compound 4.0 µM) of 66.3% and an inhibition (MKNK2 (human); compound 0.2 µM) of 3.2%. The inhibition (MKNK2 (human); compound 4.0 µM) was 28%, the inhibition (MELK (human); compound 0.2 µM) was 80% and the inhibition (MELK (human); compound 4.0 µM) was 99.2%. The inhibition (ERBB4 (human); compound 0.2 µM) was -0.9%, the inhibition (ERBB4 (human); compound 4.0 µM) was 33.9% and the inhibition (MAPK10 (human); compound 0.2 µM) was -2.3%. It also gave an inhibition (DDR2 (human); compound 0.2 µM) of 55.8%, an inhibition (DDR2 (human); compound 4.0 µM) of 98% and an inhibition (PRKD3 (human); compound 0.2 µM) of 63.7%. For the same compound, the inhibition (PRKD3 (human); compound 4.0 µM) was 97.5%, the inhibition (PDK4 (human); compound 0.2 µM) was 1.6% and the inhibition (PDK4 (human); compound 4.0 µM) was 22.6%. For the same compound, the inhibition (PRKG2 (human); compound 0.2 µM) was 9.3%, the inhibition (PRKG2 (human); compound 4.0 µM) was 65.5% and the inhibition (MAP4K4 (human); compound 4.0 µM) was 101%. It also gave an inhibition (CHEK1 (human); compound 0.2 µM) of 59.3%, an inhibition (CHEK1 (human); compound 4.0 µM) of 95.2% and an inhibition (DAPK1 (human); compound 0.2 µM) of 64.4%. It also gave an inhibition (DAPK1 (human); compound 4.0 µM) of 98.7%, an inhibition (MAPK13 (human); compound 0.2 µM) of -3.4% and an inhibition (MAPK13 (human); compound 4.0 µM) of -4.3%. It also gave an inhibition (STK10 (human); compound 0.2 µM) of 62.1%, an inhibition (NEK4 (human); compound 0.2 µM) of -2.5% and an inhibition (NEK4 (human); compound 4.0 µM) of 8.9%. For the same compound, the inhibition (MST1R (human); compound 0.2 µM) was 6.4%, the inhibition (MST1R (human); compound 4.0 µM) was 48.8% and the inhibition (PAK7 (human); compound 0.2 µM) was 20.1%. It also gave an inhibition (PAK7 (human); compound 4.0 µM) of 77.7%, an inhibition (CAMK2B (human); compound 0.2 µM) of 5.2% and an inhibition (CAMK2B (human); compound 4.0 µM) of 66.5%. The inhibition (MARK3 (human); compound 0.2 µM) was 77.4%, the inhibition (MARK3 (human); compound 4.0 µM) was 99% and the inhibition (TAOK2 (human); compound 0.2 µM) was 3.8%. For the same compound, the inhibition (TAOK2 (human); compound 4.0 µM) was 18.6%, the inhibition (PRKCQ (human); compound 0.2 µM) was 1.3% and the inhibition (PRKCQ (human); compound 4.0 µM) was 31.2%. For the same compound, the inhibition (BTK (human); compound 0.2 µM) was 2.7%, the inhibition (BTK (human); compound 4.0 µM) was 51.2% and the inhibition (RPS6KA5 KD1 KD2 (human); compound 0.2 µM) was 18.2%. The inhibition (RPS6KA5 KD1 KD2 (human); compound 4.0 µM) was 73.3%, the inhibition (PHKG2 (human); compound 0.2 µM) was 85.2% and the inhibition (PHKG2 (human); compound 4.0 µM) was 99%. It also gave an inhibition (RET (human); compound 0.2 µM) of 99.2%, an inhibition (RET (human); compound 4.0 µM) of 103% and an inhibition (SIK2 (human); compound 0.2 µM) of 46.8%. For the same compound, the inhibition (SIK2 (human); compound 4.0 µM) was 94.5%, the inhibition (CDK6 (human); compound 0.2 µM) was 23.8% and the inhibition (CDK6 (human); compound 4.0 µM) was 89.2%. For the same compound, the inhibition (ABL2 (human); compound 0.2 µM) was 13.7%, the inhibition (ABL2 (human); compound 4.0 µM) was 66.6% and the inhibition (LYN (human); compound 0.2 µM) was 67.3% and 70.3%. For the same compound, the inhibition (LYN (human); compound 4.0 µM) was 98.3% and 99.7%, the inhibition (DYRK1A (human); compound 0.2 µM) was 23% and the inhibition (DYRK1A (human); compound 4.0 µM) was 82.1%. For the same compound, the inhibition (PDK2 (human); compound 0.2 µM) was -1.2% and the inhibition (PDK2 (human); compound 4.0 µM) was 26%.
